Experimental data: patent US11524009B2, “Combination comprising at least one spliceosome modulator and at least one inhibitor chosen from BCL2 inhibitors, BCL2/BCLxL inhibitors, and BCLxL inhibitors and methods of use” (Eisai R&D Management Co., Ltd., priority 2017, dated 2022)

Assays:
Format in all cases: cell-based
NCIH1568 cells = assay: Growth inhibition, MCL1 rescue by MCL1L cDNA overexpression; settings: NCIH1568 (MCL1-dependent), Dox-induced MCL1L cDNA vs empty vector
Description: (§1) BCL-xL shRNA 1 ([…]) (Wei G, et al., 2012, Cancer Cell 21(4): 547-562) was cloned into Agel and EcoRl of the Tet inducible lentiviral pLKO-iKD-H1 puro vector (Wiederschain D, et al., 2009, Cell Cycle 8(3): 498-504). MCL1 shRNA 48 ([…]) (Wei G, et al., 2012, Cancer Cell 21(4): 547-56) was cloned into Agel and EcoRl of the Tet inducible lentiviral pLKO-iKD-U6 puro vector. MCL1-L pENTR-D-TOPO was Gateway cloned (LR clonase, Thermo Fisher Scientific) into pINDUCER20 (Meerbrey K L, et al., 2011, Proc Natl Acad Sci USA. 108(9):3665-3670). Lentiviruses were prepared in LentiX-293T cells. […]
(§2) For compound dose response experiments, cells were plated in 96 or 384 well plates at 1,000 cells in 50 μl per well. […] At t=0, untreated cells were lysed with CellTiter-Glo and measured on an Envision plate reader. At t=72 (72 hours after compound addition), cells treated with compound were lysed with CellTiter-Glo and analyzed on Envision. The luminescence value from each treatment sample was normalized to the average value of the respective DMSO control. […]

[1] = test system: MCL1 protein in NCIH1568 cells; assay: Western Blot Analysis of MCL1L, truncated MCL1 and cleaved PARP; settings: 6 hours
Experimental: Cell lines were lysed in RIPA buffer (Boston BioProducts) plus protease-inhibitor cocktail (Mini-complete, EDTA-free, Roche) and phosphatase inhibitor PhosSTOP (Roche). Lysates were diluted in RIPA buffer with 4×LDS Sample Buffer (Nupage, Thermo Fisher Scientific) and 10× Reducing Reagent (Nupage, Thermo Fisher Scientific) and boiled for 5 minutes. Twenty five micrograms of protein were loaded per well in 4-12% Bis-Tris SDS Page gels (Novex, Thermo Fisher Scientific). Gels were transferred to nitrocellulose membranes using iBlot system (Thermo Fisher Scientific). Membranes were blocked in blocking buffer (1× Tris-Buffered Saline+0.1% Tween-20 (Boston Bioproducts)+5% Non-Fat Dry Milk (Bio-Rad)) for 1 hour and then cut. Each section was probed separately with antibodies to each of the following proteins in blocking buffer: MCL1 (Cell Signaling Technologies 5453) (D35A5) rabbit monoclonal diluted 1:500, BCL-xL (Cell Signaling Technologies 2764) (54H6) rabbit monoclonal diluted 1:500, Cleaved Parp (Cell Signaling Technologies 5625) (D64P10) rabbit monoclonal diluted 1:500, and GAPDH (Sigma G8795) mouse monoclonal at 100 ng/mL. Blots were incubated with primary antibodies dilutions shaking at 4° C. overnight. Western blots were then blotted either with Odyssey Licor or HRP secondary antibodies. Blots were then washed four times using wash buffer (1× Tris-Buffered Saline+0.1% Tween-20). Blots imaged using Licor were probed shaking at room temperature for 1 hour with Licor IR-labeled secondary antibodies, IRDye® 800CW Goat anti-Rabbit IgG (Odyssey 925-32211) and IRDye® 680LT Goat anti-Mouse IgG (Odyssey 925-68020) diluted 1:10,000 in blocking buffer. Blots were then washed three times with wash buffer. IR-dye detection was performed using the Licor imaging system (Odyssey) according to manufacturer's instruction. Blots imaged using HRP were probed shaking at room temperature for 1 hour with Anti-mouse IgG, HRP-linked Antibody (Cell Signaling Technologies 7076) and Anti-rabbit IgG, HRP-linked Antibody (Cell Signaling Technologies 7074) diluted 1:5000 in blocking buffer. […]

A549 cells = assay: Growth inhibition with or without Dox-induced knockdown of BCLxL
Description: as §1, §2

[2] = test system: MCL1 gene splicing in NCIH1568 cells; assay: Quantitative RT-PCR detection of MCL1 mRNAs (splicing modulation); settings: six-hour treatment, qRT-PCR
Experimental: RNA lysates were isolated from cells treated with compounds in 96 well plates and reverse transcribed using TaqMan Gene Expression Cells-to-CT Kit (Thermo Fisher Scientific) according to manufacturer's instruction. Quantitative PCR was performed using TaqMan Gene Expression Master Mix (Thermo Fisher Scientific) with MCL1 transcript probes (Integrated DNA technologies FAM-ZEN/IBFQ) duplexed with 18S rRNA VIC-PL (Thermo Fisher Scientific assay ID Hs99999901_s1) and quantified using the ΔΔCt method.

With `CC[C@H](O)[C@@H](C)[C@H]1O[C@@H]1C[C@@](C)(O)/C=C/C=C(\C)[C@H]1OC(=O)C[C@H](O)CC[C@@](C)(O)[C@@H](OC(=O)N2CCN(C3CCCCCC3)CC2)/C=C/[C@@H]1C` [E7107, (8E,12E,14E)-7-((4-Cycloheptylpiperazin-1-yl)carbonyl)oxy-3,6,16,21-tetrahydroxy-6,10,12,16,20-pentamethyl-18,19-epoxytricosa-8,12,14-trien-11-olide] the “cell death with cDNA overexpression of MCL1L” value (NCIH1568 cells) was “rescued the cell death”, the “cleaved PARP protein (indicator of apoptosis)” value [1] was “induction” and the “full length MCL1 protein” value [1] was “dose-dependent downregulation”. For the same molecule, the “truncated short-form MCL1 protein product” value [1] was “increased in a dose-dependent manner”, the growth inhibition (A549 cells; A549 (MCL1-independent), without BCLxL knockdown) was “cytostatic inhibition” and the growth inhibition (A549 cells; A549, inducible knockdown of BCLxL (Dox)) was “clear cell death”. For the same molecule, the “MCL1L mRNA” value [2] was “robust reduction”, the “MCL1S mRNA” value [2] was “transient expression” and the “MCL1 pre-mRNA with intron-retention” value [2] was “continuous induction”.
